# “Also recorded” adds a separate entry of the source.
# Columns and labels:
# C. pneumoniae [1] = test: Rabbit model of atherosclerosis accelerated by C. pneumoniae infection, high cholesterol diet; assay type: in vivo; details: C. pneumoniae-infected rabbits; for infectious burden of Chlamydia in the vasculature (in words): versus placebo
# Experimental: Thirty received three separate C. pneumoniae inoculations performed at 3-week intervals. Similarly, 15 control rabbits were intranasally inoculated with 1 mL of normal saline under the same conditions. [table] Nineteen weeks after beginning antibiotic treatment, the rabbits were euthanized. After euthanasia, hearts were examined histologically and by immunofluorescence. Animal serum samples were also examined for seropositivity to the infecting organism. […] In the current study, the time after infection and treatment with either azithromycin or rifalazil was increased by seven weeks, a more rigorous test for the durability of treatment. Consistent with previously published work, C. pneumoniae-infected rabbits accumulated more plaque than non-infected rabbits (p=0.08).
# C. pneumoniae [2] = details: C. pneumoniae-infected rabbits, previously published study; cited from earlier work
# [3] = assay type: physicochemical
# Experimental: Rifalazil is a highly lipophilic molecule having limited solubility in water at physiological pH (approximately 200 ng/mL). Evidence of the highly lipophilic behavior of the molecule is illustrated in the partition coefficient (n-octanol:water) of between 70, 569 and over 900,000 in different experiments (Log P range; 4.9-5.9).
# [4] = Degradation to 25-desacetyl derivative under acidic and basic conditions; assay type: physicochemical
# Source text: Rifalazil degrades to a 25-desacetyl derivative under both acidic and basic conditions. Typical of ester hydrolysis, the degradation in highly alkaline solutions is rapid while at an acidic pH, e.g., pH 1, the degradation at room temperature is slower, approximately 6% in one hour.
# Chlamydia = test: Phase 2 study in men with non-gonococcal urethritis; assay type: in vivo; details: single oral dose
# Source text: (§1) Both preclinical and clinical lines of evidence support the use of rifalazil in the methods of the invention. […] In addition, based on overall safety data in animals and man, we believe that a dose of rifalazil can safely be administered, tolerated, and will likely result in clinical benefit through its anti-Chlamydia action in these patients.
# C. pneumoniae [5] = test: Potency against C. pneumoniae relative to roxithromycin; assay type: cell-based; details: fold more potent than roxithromycin
# Source text: as §1
partition coefficient (n-octanol:water) [3],"degradation to 25-desacetyl derivative ([4]; acidic pH 1, room temperature, in one hour)",degradation (ester hydrolysis) ([4]; highly alkaline solutions),Structure (SMILES),infectious burden of Chlamydia in the vasculature (in words) (C. pneumoniae [1]),prevention of Chlamydia-induced plaque formation (in words) (C. pneumoniae [2]),plaque area stenosis compared with placebo-treated animals (in words) (C. pneumoniae [1]),patients in whom Chlamydia was eradicated (Chlamydia),potency against C. pneumoniae relative to roxithromycin (C. pneumoniae [5])
–,–,–,"CC[C@H]1OC(=O)[C@H](C)[C@@H](O[C@H]2C[C@@](C)(OC)[C@@H](O)[C@H](C)O2)[C@H](C)[C@@H](O[C@@H]2O[C@H](C)C[C@H](N(C)C)[C@H]2O)[C@](C)(O)C[C@@H](C)CN(C)[C@H](C)[C@@H](O)[C@]1(C)O [azithromycin, reference compound]",reduced the infectious burden of Chlamydia in the vasculature,significant effect in preventing Chlamydia-induced plaque formation,–,–,–
"70, 569-900,000",approximately 6%,rapid,"CO[C@H]1/C=C/O[C@@]2(C)Oc3c(C)c(O)c4c(=O)c(c5oc6cc(N7CCN(CC(C)C)CC7)cc(O)c6nc-5c4c3C2=O)NC(=O)/C(C)=C\C=C\[C@H](C)[C@H](O)[C@@H](C)[C@@H](O)[C@@H](C)[C@H](OC(C)=O)[C@@H]1C [rifalazil, 3′-hydroxy-5′-(4-isobutyl-1-piperazinyl)benzoxazinorifamycin]",reduced C. pneumoniae burden; also recorded: reduced the infectious burden of Chlamydia in the vasculature,–,reduced C. pneumoniae burden and plaque area stenosis; also recorded: showed a trend in producing significantly reduced plaque area stenosis,> 86%,2000 times
